# Reference: patent publication US6737383B1, “Herbicidal oxadiazolidines” (priority 1999, dated 2004)
# Tests used:
# [1] = system: surinam grass; assay: Test B pre/postemergence surinam grass; format: in vivo, Brachiaria decumbens
# In short: (§1)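 Response is a visual 0-to-10 score relative to untreated plants, where 0 means no effect and 10 means complete control, taken twelve to sixteen days after application. Treatments went onto soil at planting and onto foliage of 1- to 4-leaf plants, using a surfactant-containing non-phytotoxic solvent.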
# [2] = system: cocklebur; assay: Test B pre/postemergence cocklebur; format: in vivo, Xanthium strumarium
# In short: as §1
# [3] = system: corn; assay: Test B pre/postemergence corn; format: in vivo, Zea mays
# In short: as §1
# [4] = system: crabgrass; assay: Test B pre/postemergence crabgrass; format: in vivo, Digitaria sanguinalis
# In short: as §1
# [5] = system: giant foxtail; assay: Test B pre/postemergence giant foxtail; format: in vivo, Setaria faberii
# In short: as §1
# [6] = system: morningglory; assay: Test B pre/postemergence morningglory; format: in vivo, Ipomoea hederacea
# In short: as §1
# [7] = system: pigweed; assay: Test B pre/postemergence pigweed; format: in vivo, Amaranthus retroflexus
# In short: as §1
# [8] = system: rape; assay: Test B pre/postemergence rape; format: in vivo, Brassica napus
# In short: as §1
# [9] = system: sugar beet; assay: Test B pre/postemergence sugar beet; format: in vivo, Beta vulgaris
# In short: as §1
# [10] = system: wheat; assay: Test B pre/postemergence wheat; format: in vivo, Triticum aestivum
# In short: as §1
# [11] = system: wild oat; assay: Test B pre/postemergence wild oat; format: in vivo, Avena fatua
# In short: as §1
# [12] = system: purple nutsedge; assay: Test B pre/postemergence purple nutsedge; format: in vivo, Cyperus rotundus
# In short: as §1
# [13] = system: rice; assay: Test B flood test rice; format: in vivo, Oryza sativa
# In short: (§2)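 Each value is a visual injury score relative to controls, with 10 meaning complete control and 0 no effect. Evaluation took place twelve to sixteen days after the 2-leaf-stage plants were treated and kept in the greenhouse.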
# [14] = system: smallflower flatsedge; assay: Test B flood test smallflower flatsedge; format: in vivo, Cyperus difformis
# In short: as §2
# [15] = system: duck salad; assay: Test B flood test duck salad; format: in vivo, Heteranthera limosa
# In short: as §2
# [16] = system: bamyardgrass; assay: Test B flood test barnyardgrass; format: in vivo, Echinochloa crus-galli
# In short: as §2
# [17] = Postemergence, Rate 62 g/ha, scale 0 to 10, 0 is no effect, 10 is complete control
# [18] = Postemergence, Rate 250 g/ha, scale 0 to 10, 0 no effect, 10 complete control
# [19] = Preemergence, Rate 62 g/ha, scale 0 to 10 (0 no effect, 10 complete control)
# [20] = Preemergence, Rate 125 g/ha, scale 0 to 10 (0 no effect, 10 complete control)
# [21] = Preemergence, Rate 500 g/ha, scale 0 (no effect) to 10 (complete control)
# [22] = Postemergence, Rate 125 g/ha, scale of 0 to 10 where 0 is no effect and 10 is complete control
# [23] = Preemergence, Rate 250 g/ha, scale of 0 to 10 where 0 is no effect and 10 is complete control
# [24] = Rate 500 g/ha, Postemergence, scale 0 to 10, 0 no effect, 10 complete control
# [25] = Rate 250 g/ha, Postemergence, scale 0 to 10, 0 is no effect, 10 is complete control
# [26] = Postemergence (flood test species), Rate 125 g/ha, scale of 0 to 10 where 0 is no effect and 10 is complete control
# [27] = Rate 250 g/ha, Postemergence (flood test), scale 0 to 10, 0 is no effect, 10 is complete control
# [28] = Rate 500 g/ha, listed under Postemergence (flood test species), scale 0 to 10, 0 no effect, 10 complete control
# [29] = flood test, listed under Postemergence, Rate 250 g/ha, scale 0 to 10, 0 no effect, 10 complete control
structure (smiles),measurement,setting,value
CC(C)N(C(=O)n1oc(=O)n(-c2cccc3c2CCCC3)c1=O)c1ccc(F)cc1 [Compound 90],B. signalgrass plant response rating,[1]; [17],0
same,B. signalgrass plant response rating,[1]; [18],0
same,B. signalgrass plant response rating,[1]; [19],0
same,"Plant response rating, B. signalgrass",[1]; [20],0
same,B. signalgrass plant response rating,[1]; [21],3
same,B. signalgrass plant response rating,"[1]; Rate 125 g/ha, Postemergence, scale 0 to 10, 0 no effect, 10 complete control",0
same,B. signalgrass plant response rating,"[1]; Rate 500 g/ha, Postemergence, scale of 0 to 10 where 0 is no effect and 10 is complete control",0
same,Cocklebur plant response rating,[2]; [17],1
same,Cocklebur plant response rating,[2]; [22],3
same,Cocklebur plant response rating,[2]; [18],3
same,Cocklebur plant response rating,[2]; [19],0
same,"Plant response rating, Cocklebur",[2]; [20],0
same,"Plant response rating, Cocklebur",[2]; [23],0
same,Cocklebur plant response rating,[2]; [21],0
same,Cocklebur plant response rating,[2]; [24],5
same,Corn plant response rating,[3]; [17],0
same,Corn plant response rating,[3]; [22],0
same,Corn plant response rating,[3]; [18],0
same,Corn plant response rating,[3]; [19],0
same,"Plant response rating, Corn",[3]; [20],0
same,"Plant response rating, Corn",[3]; [23],0
same,Corn plant response rating,[3]; [21],0
same,Corn plant response rating,[3]; [24],0
same,Crabgrass plant response rating,[4]; [17],1
same,Crabgrass plant response rating,[4]; [22],2
same,Crabgrass plant response rating,[4]; [18],2
same,Crabgrass plant response rating,[4]; [19],0
same,"Plant response rating, Crabgrass",[4]; [20],2
same,"Plant response rating, Crabgrass",[4]; [23],8
same,Crabgrass plant response rating,[4]; [21],8
same,Crabgrass plant response rating,[4]; [24],4
same,Giant foxtail plant response rating,[5]; [17],0
same,Giant foxtail plant response rating,[5]; [22],0
same,Giant foxtail plant response rating,[5]; [18],1
same,Giant foxtail plant response rating,[5]; [19],4
same,"Plant response rating, Giant foxtail",[5]; [20],8
same,"Plant response rating, Giant foxtail",[5]; [23],9
same,Giant foxtail plant response rating,[5]; [21],10
same,Giant foxtail plant response rating,[5]; [24],1
same,Morningglory plant response rating,[6]; [17],3
same,Morningglory plant response rating,[6]; [22],3
same,Morningglory plant response rating,[6]; [18],4
same,Morningglory plant response rating,[6]; [19],0
same,"Plant response rating, Morningglory",[6]; [20],0
same,"Plant response rating, Morningglory",[6]; [23],0
same,Morningglory plant response rating,[6]; [21],0
same,Morningglory plant response rating,[6]; [24],4
same,Redroot pigweed plant response rating,[7]; [17],2
same,Redroot pigweed plant response rating,[7]; [22],5
same,Redroot pigweed plant response rating,[7]; [19],0
same,"Plant response rating, Redroot pigweed",[7]; [20],0
same,"Plant response rating, Redroot pigweed",[7]; [23],0
same,Redroot pigweed plant response rating,[7]; [21],6
same,"Plant response rating, Redroot pigweed",[7]; [25],6
same,Redroot pigweed plant response rating,[7]; [24],7
same,Rape plant response rating,[8]; [17],0
same,Rape plant response rating,[8]; [22],0
same,Rape plant response rating,[8]; [18],0
same,Rape plant response rating,[8]; [19],0
same,"Plant response rating, Rape",[8]; [20],0
same,"Plant response rating, Rape",[8]; [23],0
same,Rape plant response rating,[8]; [21],0
same,Rape plant response rating,[8]; [24],0
same,Sugarbeets plant response rating,[9]; [17],0
same,Sugarbeets plant response rating,[9]; [22],0
same,Sugarbeets plant response rating,[9]; [19],0
same,"Plant response rating, Sugarbeets",[9]; [20],0
same,"Plant response rating, Sugarbeets",[9]; [23],0
same,Sugarbeets plant response rating,[9]; [21],0
same,"Plant response rating, Sugarbeets",[9]; [25],3
same,Sugarbeets plant response rating,[9]; [24],3
same,Wheat plant response rating,[10]; [17],0
same,Wheat plant response rating,[10]; [22],0
same,Wheat plant response rating,[10]; [19],0
same,"Plant response rating, Wheat",[10]; [20],0
same,"Plant response rating, Wheat",[10]; [23],0
same,Wheat plant response rating,[10]; [21],0
same,"Plant response rating, Wheat",[10]; [25],0
same,Wheat plant response rating,[10]; [24],0
same,Wild oats plant response rating,[11]; [17],0
same,Wild oats plant response rating,[11]; [22],0
same,Wild oats plant response rating,[11]; [19],0
same,"Plant response rating, Wild oats",[11]; [20],0
same,"Plant response rating, Wild oats",[11]; [23],2
same,Wild oats plant response rating,[11]; [21],3
same,"Plant response rating, Wild oats",[11]; [25],0
same,Wild oats plant response rating,[11]; [24],0
same,Nutsedge plant response rating,[12]; [17],0
same,Nutsedge plant response rating,[12]; [22],0
same,Nutsedge plant response rating,[12]; [18],0
same,Nutsedge plant response rating,[12]; [19],0
same,"Plant response rating, Nutsedge",[12]; [20],0
same,"Plant response rating, Nutsedge",[12]; [23],0
same,Nutsedge plant response rating,[12]; [21],0
same,Nutsedge plant response rating,[12]; [24],0
same,Rice plant response rating,[13]; [26],0
same,Rice plant response rating,[13]; [17],0
same,"Plant response rating, Rice",[13]; [27],0
same,Rice plant response rating,[13]; [28],0
same,S. Flatsedge plant response rating,[14]; [26],0
same,S. Flatsedge plant response rating,[14]; [17],0
same,"Plant response rating, S. Flatsedge",[14]; [27],0
same,S. Flatsedge plant response rating,[14]; [28],0
same,Ducksalad plant response rating,[15]; [26],0
same,Ducksalad plant response rating,[15]; [17],0
same,Ducksalad plant response rating,[15]; [28],0
same,Ducksalad plant response rating,[15]; [29],0
same,Barnyardgrass plant response rating,[16]; [17],0
same,Barnyardgrass plant response rating,"[16]; Rate 125 g/ha, Postemergence section (flood test species), scale 0 to 10, 0 no effect, 10 complete control",0
same,Barnyardgrass plant response rating,[16]; [28],0
same,Barnyardgrass plant response rating,[16]; [29],0
